{"source": "patent US9555086B2", "about": "“Compositions and methods for inducing an immune response” (The Regents of the University of Michigan, priority 2010, dated 2017)", "key": {"[1]": {"tested_on": "antioxidative signaling pathway", "details": "read-out: IC50 as activator of antioxidative signaling pathway; cited from earlier work"}, "[2]": {"tested_on": "Human fibroblast M1 cells", "experiment": "Nitric Oxide Assay in human fibroblast M1 cells", "format": "cell-based", "description": "FIGS. 17A and 17B show dose-response experiments of NO production rate induced by cyclic analogs. Human M1 fibroblasts were incubated with different concentrations of the listed cyclic peptides, or with 50 μM of positive (65-79*0401) or negative (65−79*0402) control peptides. NO production rates were determined using the fluorescent probe 4,5-diaminofluorescein diacetate (DAF-2DA) (See Ling et al., Arthritis Res Ther 2007, 9, R5; Ling et al., J. J Immunol 2007, 179, 6359; Ling et al., Arthritis Rheum 2006, 54, 3423).\nNitric Oxide Assay. Human fibroblast M1 cells were plated at a density of 1×10^5 cells per well in 96-well plates the day prior to the Nitric Oxide assay. To determine the rate of NO production in fibroblast, cells were first loaded with 20 μM of the fluorescent NO probe 4,5-diaminofluorescein diacetate (DAF-2DA), incubated in the dark at 37° C. for 1 hour and washed in 100 μL of DMEM/phenol red-free medium. The fluorescence level was recorded every 5 minutes over a period of 500 minutes, using a Fusion αHT system (PerkinElmer Life Sciences) at an excitation wavelength of 488 nm and emission wavelength of 515 nm. The NO production rate is expressed as the mean±SEM fluorescence units per minute."}, "trypsin and chymotrypsin [3]": {"tested_on": "trypsin and chymotrypsin", "details": "pH 8"}, "trypsin and chymotrypsin [4]": {"tested_on": "trypsin and chymotrypsin", "experiment": "Trypsin/chymotrypsin stability assay"}, "CD8+ and CD8− DC": {"tested_on": "CD8+ and CD8− DC", "experiment": "Cytokine production by splenic DC subsets (Luminex)", "format": "cell-based, mouse", "details": "CD11c+CD8− DCs; 50 μg/ml peptide", "description": "Splenic CD8+ and CD8− DC were isolated from DBA/1 mice as above and cultured in 96-well plates over time in the presence or absence of ISL-positive (65-79*0401) or ISL-negative (65-79*0402) peptides (50 μg/ml). At various time points thereafter, supernatants were collected and assayed for cytokine content, using the Luminex platform.\nDBA/1 splenic unfractionated CD11c+ DCs (CD11c+), or their purified CD11c+CD8+ DCs (CD8+) or CD11c+CD8− DCs (CD8−) subsets were cultured with the ISL 65-79*0401 or ISL-negative control 65-79*0402 or medium. Supernatants were collected at different time points and assayed for cytokine content using a Luminex platform.\nTo determine the rate of NO production, cells were loaded with 20 μM of the fluorescent NO probe 4,5-diaminofluorescein diacetate (DAF-2DA) and the fluorescence level was recorded every 5 minutes over a period of 500 minutes using a Fusion αHT system (PerkinElmer Life Sciences) at an excitation wavelength of 488 nm and emission wavelength of 515 nm. To determine IDO enzymatic activity, the generation of its product, kynurenine was measured (Takikawa et al. 1988. J Biol Chem 263:2041-2048.; herein incorporated by reference in its entirety). Cytokine concentrations were measured in cell culture supernatants using a Luminex platform (Millipore Corporation, Danvers, Mass.). In some experiments, cytokines were determined using ELISA (Quantikine®, R&D Systems, Minneapolis, Minn.) following the manufacture's instruction."}, "Th17 cells": {"tested_on": "Th17 cells", "experiment": "ISL polarizing effect in vivo (CII in CFA immunization)", "design": "species or system DBA/1 mice", "details": "10 μg co-administered with CII in CFA, footpad; day 7", "description": "(A) DBA/1 mice were immunized with CII in CFA in the presence of PBS, 65-79*0401 or 65-79*0402. On day 7, cells from draining lymph nodes were isolated, cultured for 6 hours with PMA, Ionomycin and Brefeldin A and then stained with anti-mouse CD4, IL17A and IFN-γ as above. On the left: Representative dot plots showing percentages of IL17A+ and IFN-γ+ cells obtained from gated CD4+ cells. On the right, bar graphs showing results as mean±SD of duplicate experiments. (B) DBA/1 and CII-TCR Tg mice were immunized as in (A). On day 7, splenic cells were isolated and cultured with the synthetic peptide CII260-267 (5 μg/ml). Supernatants were collected every 24 hours and assayed for IL-17 levels by ELISA.\nMice were injected subcutaneously in the footpad with 100 μg of chicken collagen type II (CII) (Chondrex, Inc, Redmond, Wash.) emulsified in CFA (4 mg/ml). The inoculums contained 10 μg of either ISL-positive 65-79*0401 or ISL-negative 65-79*0402 ligands in PBS, or an equal volume of PBS alone. Animals were sacrificed 7 days after immunization. For Th17 quantification studies, inguinal and popliteal lymph nodes were collected and single cell suspensions were prepared. Unfractionated lymph node cells were cultured with PMA, Ionomycin and Brefeldin A for 6 hours as above. Cells were stained with FITC anti-mouse CD4 or isotype controls, followed by fixation and permeabilization using a Cytofix-Cytoperm™ kit. After permeabilization, intracellular staining was performed using PE-conjugated anti-mouse IL17A and APC-conjugated anti-mouse IFN-γ and cells were analyzed by flow cytometry as above. To measure IL-17 production, splenocytes from mice immunized as above were stimulated in vitro with 5 μg of CII259-273 peptide. At different time points thereafter, supernatants were collected and assayed for IL-17 by ELISA as above."}}, "note": "“Also recorded” adds a separate entry of the source. Numbered stars: 1 amine (or outer) side, 2 acyl side, 3 side chain; on linkers, the order of the positions; unused ones are H or OH. Bridge positions count the residues as written; N and C are the ends. Square brackets hold non-standard residues; d marks the D form. Ends that are not written are not given here. Peptide text beside a SMILES is read from it. CO = O=C([*:1])[*:2]; Nlys = NCCCCNCC(=O)O", "data": [{"compound": "C=C(C)CCOP(=O)(O)OP(=O)(O)O", "note": "[IPP, Isopentenyl diphosphate]", "values": [{"measurement": "IC50", "setting": "[1]", "result": 0.017, "unit": "nM"}]}, {"compound": "c(HS6-2): cyclic analog named only in b214; probably a misprint of c(HS2-4) (QRRAA; bridge (positions not given here) via CO; also: urea backbone cyclisation, places not given here)", "values": [{"measurement": "potency in activating NO production (in words)", "setting": "[2]", "result": "potent analogs"}]}, {"compound": "H-KDLLEQRRAAVDTYC-NH2 [65-79*0404]", "values": [{"measurement": "degradation by trypsin/chymotrypsin (HPLC)", "setting": "trypsin and chymotrypsin [3]", "result": "degraded completely"}]}, {"compound": "C[C@H](NC(=O)CN1CCCCNC(=O)NCCCCN(C(=O)[C@@H](N)Cc2c[nH]c3ccccc23)CC(=O)N[C@@H](CCC(N)=O)C(=O)N[C@@H](CCCCN)C(=O)N[C@@H](CCCNC(=N)N)C1=O)C(N)=O", "note": "[c(HS4-4)] (H-W[Nlys]QKR[Nlys]A-NH2; linker 2-6 via CO)", "values": [{"measurement": "stability towards trypsin/chymotrypsin degradation (HPLC)", "setting": "trypsin and chymotrypsin [4]; 4 hours of incubation, 37° C., pH 8", "result": "completely stable"}, {"measurement": "cleavage fragments in MS analysis", "setting": "trypsin and chymotrypsin [4]; after trypsin/chymotrypsin incubation", "result": "no fragments were observed"}]}, {"compound": "H-Lys-Asp-Ile-Leu-Glu-Asp-Glu-Arg-Ala-Ala-Val-Asp-Thr-Tyr-Cys-NH2 (H-KDILEDERAAVDTYC-NH2) [65-79*0402, reference compound]", "values": [{"measurement": "IL-6 production", "setting": "CD8+ and CD8− DC", "result": "did not trigger any increased production; also recorded: did not trigger any cytokine production"}, {"measurement": "Th17 abundance in draining lymph nodes", "setting": "Th17 cells", "result": "no effect"}]}]}
